# From patent US20170088532A1, “INHIBITORS OF LPXC” (The Regents of the University of California, priority 2013, published 2017)
# Read-outs that look alike come from different tables or passages of the source.
# Molecular target: T1, E. Coli LpxC (Escherichia coli, UniProt P0A725)
# T1 sequence (P0A725 1-305): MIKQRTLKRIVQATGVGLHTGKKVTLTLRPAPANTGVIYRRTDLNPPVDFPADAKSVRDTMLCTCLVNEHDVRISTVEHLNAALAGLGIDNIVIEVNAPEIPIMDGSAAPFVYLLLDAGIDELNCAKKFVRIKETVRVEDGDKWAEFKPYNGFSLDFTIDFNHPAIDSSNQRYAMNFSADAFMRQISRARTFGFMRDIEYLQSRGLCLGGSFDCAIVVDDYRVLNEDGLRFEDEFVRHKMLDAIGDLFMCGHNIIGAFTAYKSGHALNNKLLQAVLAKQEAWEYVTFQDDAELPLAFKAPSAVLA
# Test: Inhibition of LpxC from E. coli
# Format: biochemical
# Conditions: for inhibition at 50 µM: compound at 50 μM
# Excerpt: Methods for assessing inhibition of LpxC are known in the art.
# [1] = Table 1, read-out: % Inhibition E. Coli LpxC at 50 μM
# [2] = Table 2, values in parentheses, read-out: (% Inhibition of E. Coli LpxC at 50 μM)
Compound,inhibition at 50 µM [1],inhibition at 50 µM [2],"IC50 (E. Coli LpxC, Table 2, values without parentheses)"
O=c1cc(CO)oc(CNc2ccc(-c3ccccc3)cc2)c1O [Compound 010],39%,39%,
O=c1ccoc(CNc2ccc(-c3ccccc3)cc2)c1O [Compound 013],67%,67%,
Cc1cc(=O)c(O)c(CNc2ccc(-c3ccccc3)cc2)o1 [Compound 014],23%,23%,
"COc1ccc(-c2ccc(NCc3oc(CO)cc(=O)c3O)cc2)cc1 [Compound 018, 3-hydroxy-6-(hydroxymethyl)-2-(((4′-methoxy-[1,1′-biphenyl]-4-yl)amino)methyl)-4H-pyran-4-one]",81%,,12.7 µM
COc1ccc(-c2ccc(NCc3occc(=O)c3O)cc2)cc1 [Compound 027],13%,13%,
COC(=O)c1cc(=O)c(O)c(CNc2ccc(-c3ccc(OC)cc3)cc2)o1 [Compound 035],29%,29%,
